Experimental data as given in patent US11427553B2, “Dihydrooxadiazinones” (Bayer Aktiengesellschaft, priority 2017, dated 2022).

How the values were obtained:
[1] = system: HeLa cells; assay: Assay 1 cell proliferation measurement (CTG, 72 h), HeLa; type: cell-based, human; settings: Homo sapiens, HeLa; Assay 1, 72 h, Cell Titer Glo; read-out: HeLa IC50 [nM] (Cervical cancer)
Procedure, shortened: (§1)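 Cells were plated, grown overnight at 37 °C, then treated 72 h with a 10-step 2.5-fold dilution series from 100 nM maximum final (0.3% DMSO vehicle). Viability was read by CellTiter-Glo luminescence. IC50 from a 4-parameter fit, normalised to a 0 h plate (maximum inhibition) and DMSO control (minimum inhibition).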

[2] = system: SK-MEL-3 cells; assay: Assay 1 cell proliferation measurement (CTG, 72 h), SK-MEL-3; type: cell-based, human; settings: Homo sapiens, SK-MEL3; Assay 1, 72 h, Cell Titer Glo; read-out: SK-MEL-3 IC50 [nM] (melanoma)
Procedure, shortened: as §1

[3] = system: IGR37 cells; assay: Assay 1 cell proliferation measurement (CTG, 72 h), IGR37; type: cell-based; settings: Homo sapiens, IGR-37, Cell Titer Glo, read-out: IGR37 IC50 [nM] (melanoma)
[4] = molecular target: human full length PDE3A (Homo sapiens (Human), UniProt Q14432); assay: Assay 4 PDE3A enzyme inhibition (3H-cAMP SPA); type: biochemical; settings: Sf9 cell extract
human full length PDE3A, sequence (Q14432 whole entry): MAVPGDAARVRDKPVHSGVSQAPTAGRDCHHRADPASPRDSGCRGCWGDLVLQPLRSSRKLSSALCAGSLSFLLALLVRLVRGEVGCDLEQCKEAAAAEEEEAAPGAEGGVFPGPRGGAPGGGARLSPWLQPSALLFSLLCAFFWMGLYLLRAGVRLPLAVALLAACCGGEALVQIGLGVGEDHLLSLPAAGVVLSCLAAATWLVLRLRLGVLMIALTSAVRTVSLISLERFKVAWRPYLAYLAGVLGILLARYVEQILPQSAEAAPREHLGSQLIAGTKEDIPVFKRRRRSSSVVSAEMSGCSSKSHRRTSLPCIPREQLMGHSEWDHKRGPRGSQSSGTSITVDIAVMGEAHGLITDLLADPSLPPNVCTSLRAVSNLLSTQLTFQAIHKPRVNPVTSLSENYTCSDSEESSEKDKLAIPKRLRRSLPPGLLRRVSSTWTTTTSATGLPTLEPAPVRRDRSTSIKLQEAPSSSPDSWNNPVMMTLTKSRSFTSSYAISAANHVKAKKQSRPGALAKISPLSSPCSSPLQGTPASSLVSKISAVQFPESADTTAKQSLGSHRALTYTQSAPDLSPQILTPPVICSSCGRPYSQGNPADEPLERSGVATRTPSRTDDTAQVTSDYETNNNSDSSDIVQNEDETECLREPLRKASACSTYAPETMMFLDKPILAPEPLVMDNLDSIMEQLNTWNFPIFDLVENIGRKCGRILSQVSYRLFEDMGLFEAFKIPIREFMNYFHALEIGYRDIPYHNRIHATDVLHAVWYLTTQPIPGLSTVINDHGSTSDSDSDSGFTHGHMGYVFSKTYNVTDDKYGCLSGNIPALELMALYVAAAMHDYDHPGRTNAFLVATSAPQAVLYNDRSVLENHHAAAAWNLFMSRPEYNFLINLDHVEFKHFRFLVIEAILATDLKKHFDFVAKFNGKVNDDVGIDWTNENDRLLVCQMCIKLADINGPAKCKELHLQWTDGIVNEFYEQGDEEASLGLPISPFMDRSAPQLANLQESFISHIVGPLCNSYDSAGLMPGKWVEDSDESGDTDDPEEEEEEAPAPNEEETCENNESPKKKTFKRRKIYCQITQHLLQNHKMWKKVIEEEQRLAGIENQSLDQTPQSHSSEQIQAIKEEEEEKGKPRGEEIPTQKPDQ
Procedure, shortened: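 Enzyme: Sf9 extract with overexpressed full-length PDE3A; substrate [8-3H]cAMP, 0.025 μCi/well; 60 min, room temperature, Tris/HCl pH 7.5 buffer with MgCl2, EDTA, BSA.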

[5] = molecular target: human full length PDE3B (Homo sapiens (Human), UniProt Q13370); assay: Assay 5 PDE3B enzyme inhibition (3H-cAMP SPA); type: biochemical; settings: Sf9 cell extract
human full length PDE3B, sequence (Q13370 whole entry): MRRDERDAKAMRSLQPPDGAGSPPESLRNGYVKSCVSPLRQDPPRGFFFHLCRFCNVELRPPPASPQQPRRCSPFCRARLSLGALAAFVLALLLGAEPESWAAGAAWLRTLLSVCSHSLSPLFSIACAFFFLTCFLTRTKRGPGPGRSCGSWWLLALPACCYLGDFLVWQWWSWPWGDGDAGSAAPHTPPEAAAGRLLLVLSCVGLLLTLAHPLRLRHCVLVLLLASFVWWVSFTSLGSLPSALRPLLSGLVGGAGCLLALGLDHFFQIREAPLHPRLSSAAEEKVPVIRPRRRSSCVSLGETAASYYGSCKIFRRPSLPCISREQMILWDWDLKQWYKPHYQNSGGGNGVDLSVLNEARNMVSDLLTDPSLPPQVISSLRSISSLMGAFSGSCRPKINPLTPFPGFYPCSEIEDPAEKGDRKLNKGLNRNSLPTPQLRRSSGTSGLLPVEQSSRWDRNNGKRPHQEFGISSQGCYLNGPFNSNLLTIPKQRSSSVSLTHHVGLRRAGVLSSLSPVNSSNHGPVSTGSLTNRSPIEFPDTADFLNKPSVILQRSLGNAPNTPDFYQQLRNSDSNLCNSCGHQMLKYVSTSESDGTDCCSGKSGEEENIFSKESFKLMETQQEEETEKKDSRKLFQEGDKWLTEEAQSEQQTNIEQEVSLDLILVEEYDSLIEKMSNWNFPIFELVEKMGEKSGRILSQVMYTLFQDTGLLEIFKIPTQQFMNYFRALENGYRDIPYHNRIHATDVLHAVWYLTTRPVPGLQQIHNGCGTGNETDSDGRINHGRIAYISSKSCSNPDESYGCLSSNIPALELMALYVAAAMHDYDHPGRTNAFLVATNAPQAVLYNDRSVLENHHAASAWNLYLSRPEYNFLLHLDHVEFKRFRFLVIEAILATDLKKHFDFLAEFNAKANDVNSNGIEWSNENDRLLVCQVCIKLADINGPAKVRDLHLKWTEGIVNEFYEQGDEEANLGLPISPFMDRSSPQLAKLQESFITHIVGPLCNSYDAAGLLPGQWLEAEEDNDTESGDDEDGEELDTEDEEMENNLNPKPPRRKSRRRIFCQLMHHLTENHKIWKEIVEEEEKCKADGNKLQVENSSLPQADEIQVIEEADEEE
Procedure, shortened: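 Inhibition was measured by scintillation proximity using [8-3H]adenosine 3′,5′-cyclic phosphate as substrate and full-length human PDE3B from an Sf9 overexpression extract, run one hour at room temperature at pH 7.5.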

[6] = Assay 6 in vitro metabolic stability in cryopreserved human hepatocytes (CL, Fmax); type: in vitro ADME; settings: 1 μM test compound; for Clblood: hepatic in vivo blood clearance calculated (well-stirred) from half-life in cryopreserved human hepatocytes; for Fmax: maximal oral bioavailability calculated from half-life in cryopreserved human hepatocytes
Experimental: Assay 6 Method for Human Cryo Hepatocytes:
Investigation of In Vitro Metabolic Stability in Cryopreserved Human Hepatocytes (Including Calculation of Hepatic In Vivo Blood Clearance (CL) and Maximal Oral Bioavailability (Fmax))
Cryopreserved Hepatocytes (e.g. purchased from Celsis InVitroTechnologies) were briefly thawed, washed with 45 mL pre-warmed in in vitro GRO HT medium and centrifuged for 5 min at 50×g. The cell pellet was resuspended in 5 ml of Krebs-Henseleit […] (KHB). Cell viability was determined by trypan blue exclusion.
For the metabolic stability assay liver cells were distributed in WME containing 5% FCS to glass vials at a density of 1.0×10^6 vital cells/ml. The test compound was added to a final concentration of 1 μM. During incubation, the hepatocyte suspensions were continuously shaken at 580 rpm and aliquots were taken at 2, 8, 16, 30, 45 and 90 min, to which equal volumes of cold methanol were immediately added. Samples were frozen at −20° C. over night, after subsequently centrifuged for 15 minutes at 3000 rpm and the supernatant was analyzed with an Agilent 1290 HPLC-system with LCMS/MS detection.
The half-life of a test compound was determined from the concentration-time plot. From the half-life the intrinsic clearances were calculated. Together with the additional parameters liver blood flow, amount of liver cells in vivo and in vitro. The hepatic in vivo blood clearance (CL) and the maximal oral bioavailability (Fmax) was calculated.

CC(Nc1ccc(C2=NNC(=O)OC2)cc1C(F)(F)F)C1CC1 (racemic) [Example 240, (rac)-5-{4-[(1-cyclopropylethyl)amino]-3-(trifluoromethyl)phenyl}-3,6-dihydro-2H-1,3,4-oxadiazin-2-one]
IC50 [1]: 3 nM | IC50 [2]: 12 nM | IC50 [3]: 10 nM | IC50 [4]: 180 nM | IC50 [5]: 260 nM

CC1OC(=O)NN=C1c1ccc(-c2ccc(F)cc2)c(C(F)(F)F)c1 (racemic) [Example 192, (rac)-5-[4′-Fluoro-2-(trifluoromethyl)[1,1′-biphenyl]-4-yl]-6-methyl-3,6-dihydro-2H-1,3,4-oxadiazin-2-one]
IC50 [1]: 2 nM | IC50 [2]: 6 nM | IC50 [3]: 7 nM | IC50 [4]: 320 nM | IC50 [5]: 120 nM

O=C1NN=C(c2ccc(-c3ccc(F)cc3F)c(F)c2)CO1 [Example 111, 5-(2,2′,4′-Trifluoro[1,1′-biphenyl]-4-yl)-3,6-dihydro-2H-1,3,4-oxadiazin-2-one]
IC50 [1]: 2 nM | IC50 [2]: 4 nM | IC50 [4]: 72 nM | IC50 [5]: 81 nM | Clblood [6]: 5.33 mL/min/kg | Fmax [6]: 76%

O=C1NN=C(c2ccc(-c3ccc(Cl)cc3)c(C(F)F)c2)CO1 [Example 199, 5-[4′-Chloro-2-(difluoromethyl)[1,1′-biphenyl]-4-yl]-3,6-dihydro-2H-1,3,4-oxadiazin-2-one]
IC50 [1]: 2 nM | IC50 [2]: 5 nM | IC50 [4]: 210 nM | IC50 [5]: 200 nM | Clblood [6]: 15.7 mL/min/kg | Fmax [6]: 29%

C[C@@H]1OC(=O)NN=C1c1ccc(N2CC(C)(O)C2)c(C(F)(F)F)c1 [Example 280, (6S)-5-[4-(3-Hydroxy-3-methylazetidin-1-yl)-3-(trifluoromethyl)phenyl]-6-methyl-3,6-dihydro-2H-1,3,4-oxadiazin-2-one]
IC50 [1]: 0.1 nM | IC50 [2]: 0.4 nM | IC50 [3]: 0.4 nM

O=C1NN=C(c2ccc(-c3ccc(Cl)cc3)c(OC(F)(F)F)c2)CO1 [Example 71, 5-[4′-Chloro-2-(trifluoromethoxy)biphenyl-4-yl]-3,6-dihydro-2H-1,3,4-oxadiazin-2-one]
IC50 [1]: 20 nM | IC50 [2]: 38 nM | IC50 [4]: > 1000 nM | IC50 [5]: > 1000 nM | Clblood [6]: 3.17 mL/min/kg | Fmax [6]: 86%

CC(C)Cc1ccc(C2=NNC(=O)OC2)cc1C(F)(F)F [Example 268, 5-[4-(2-Methylpropyl)-3-(trifluoromethyl)phenyl]-3,6-dihydro-2H-1,3,4-oxadiazin-2-one]
IC50 [1]: 1 nM | IC50 [2]: 3 nM | IC50 [4]: 138 nM | IC50 [5]: 110 nM | Clblood [6]: 5 mL/min/kg | Fmax [6]: 78%

Cc1cc(F)ccc1-c1ccc(C2=NNC(=O)OC2)cc1C [Example 9, 5-(4′-Fluoro-2,2′-dimethylbiphenyl-4-yl)-3,6-dihydro-2H-1,3,4-oxadiazin-2-one]
IC50 [1]: 15 nM | IC50 [2]: 33 nM | IC50 [4]: 440 nM | IC50 [5]: 240 nM | Clblood [6]: 3.17 mL/min/kg | Fmax [6]: 85%

O=C1NN=C(c2ccc(N3CCC(F)(F)CC3)c(C(F)(F)F)c2)CO1 [Example 232, 5-[4-(4,4-Difluoropiperidin-1-yl)-3-(trifluoromethyl)phenyl]-3,6-dihydro-2H-1,3,4-oxadiazin-2-one]
IC50 [1]: 2 nM | IC50 [2]: 5 nM | IC50 [3]: 4 nM

CCOCCNc1ccc(C2=NNC(=O)OC2)cc1C(F)(F)F [Example 260, 5-{4-[(2-Ethoxyethyl)amino]-3-(trifluoromethyl)phenyl}-3,6-dihydro-2H-1,3,4-oxadiazin-2-one]
IC50 [1]: 1 nM | IC50 [2]: 3 nM | IC50 [4]: 48 nM | IC50 [5]: 170 nM | Clblood [6]: 14.3 mL/min/kg | Fmax [6]: 35%

O=C1NN=C(c2ccc(-c3cnn(C(F)F)c3)c(C(F)F)c2)CO1 [Example 195, 5-{3-(Difluoromethyl)-4-[1-(difluoromethyl)-1H-pyrazol-4-yl]phenyl}-3,6-dihydro-2H-1,3,4-oxadiazin-2-one]
IC50 [1]: 2 nM | IC50 [2]: 5 nM | IC50 [4]: 58 nM | IC50 [5]: 77 nM | Clblood [6]: <0.17 mL/min/kg | Fmax [6]: 100%

NC(=O)CNc1ccc(C2=NNC(=O)OC2)cc1C(F)(F)F [Example 256, N^2-[4-(2-Oxo-3,6-dihydro-2H-1,3,4-oxadiazin-5-yl)-2-(trifluoromethyl)phenyl]glycinamide]
IC50 [1]: 37 nM | IC50 [2]: 63 nM | IC50 [4]: 240 nM | IC50 [5]: 480 nM | Clblood [6]: 1.2 mL/min/kg | Fmax [6]: 95%

COC/C=C/c1ccc(C2=NNC(=O)OC2)cc1C(F)(F)F [Example 140, 5-{4-[3-Methoxyprop-1-en-1-yl]-3-(trifluoromethyl)phenyl}-3,6-dihydro-2H-1,3,4-oxadiazin-2-one]
IC50 [1]: 1 nM | IC50 [2]: 1 nM | IC50 [4]: 58 nM | IC50 [5]: 80 nM | Clblood [6]: 8.5 mL/min/kg | Fmax [6]: 61%

CCC(CNc1ccc(C2=NNC(=O)OC2)cc1C(F)(F)F)OC (centres unmarked) [Example 281, 5-{4-[(2-methoxybutyl)amino]-3-(trifluoromethyl)phenyl}-3,6-dihydro-2H-1,3,4-oxadiazin-2-one]
IC50 [1]: 12 nM | Clblood [6]: 14.2 mL/min/kg | Fmax [6]: 35%

Cc1cc(F)ccc1-c1ccc(C2=NNC(=O)OC2)cc1F [Example 162, 5-(2,4′-Difluoro-2′-methyl[1,1′-biphenyl]-4-yl)-3,6-dihydro-2H-1,3,4-oxadiazin-2-one]
IC50 [1]: 4 nM | IC50 [2]: 7 nM | IC50 [4]: 210 nM | IC50 [5]: 120 nM | Clblood [6]: 10.3 mL/min/kg | Fmax [6]: 53%

CC1(O)CN(c2ccc(C3=NNC(=O)OC3)cc2C(F)(F)F)C1 [Example 203, 5-[4-(3-Hydroxy-3-methylazetidin-1-yl)-3-(trifluoromethyl)phenyl]-3,6-dihydro-2H-1,3,4-oxadiazin-2-one]
IC50 [1]: 1 nM | IC50 [2]: 2 nM | IC50 [4]: 37 nM | IC50 [5]: 88 nM | Clblood [6]: 10.2 mL/min/kg | Fmax [6]: 54%

CC(C)(C)Nc1ccc(C2=NNC(=O)OC2)cc1C(F)(F)F [Example 224, 5-[4-(tert-Butylamino)-3-(trifluoromethyl)phenyl]-3,6-dihydro-2H-1,3,4-oxadiazin-2-one]
IC50 [1]: 2 nM | IC50 [2]: 3 nM | IC50 [4]: 165 nM | IC50 [5]: 200 nM | Clblood [6]: 5.83 mL/min/kg | Fmax [6]: 74%

CC(C)c1ccc(C2=NNC(=O)OC2)cc1C(F)(F)F [Example 270, 5-[4-(Propan-2-yl)-3-(trifluoromethyl)phenyl]-3,6-dihydro-2H-1,3,4-oxadiazin-2-one]
IC50 [1]: 9 nM | IC50 [2]: 15 nM | IC50 [4]: 55 nM | IC50 [5]: 170 nM | Clblood [6]: <0.17 mL/min/kg | Fmax [6]: 100%

C[C@@H]1OC(=O)NN=C1c1ccc(N2CC(F)(F)C2)c(C(F)(F)F)c1 [Example 279, (6S)-5-[4-(3,3-Difluoroazetidin-1-yl)-3-(trifluoromethyl)phenyl]-6-methyl-3,6-dihydro-2H-1,3,4-oxadiazin-2-one]
IC50 [1]: 1 nM | IC50 [2]: 2 nM | IC50 [3]: 2 nM

O=C1NN=C(c2ccc(-c3ccc(F)cc3)c(C(F)F)c2)CO1 [Example 198, 5-[2-(Difluoromethyl)-4′-fluoro[1,1′-biphenyl]-4-yl]-3,6-dihydro-2H-1,3,4-oxadiazin-2-one]
IC50 [1]: 6 nM | IC50 [2]: 14 nM | IC50 [4]: 170 nM | IC50 [5]: 130 nM | Clblood [6]: 7.33 mL/min/kg | Fmax [6]: 67%

O=C1NN=C(c2ccc(-c3cccc(F)c3F)c(C(F)(F)F)c2)CO1 [Example 64, 5-[2′,3′-Difluoro-2-(trifluoromethyl)biphenyl-4-yl]-3,6-dihydro-2H-1,3,4-oxadiazin-2-one]
IC50 [1]: 17 nM | IC50 [2]: 41 nM | IC50 [4]: 221 nM | IC50 [5]: 193 nM
